For this test, the target named is T1, Pl-GAL-8 (Paracentrotus lividus, UniProt A0A0U5C3R9).
T1 construct: gene galectin-8; tags kept; expressed in E. coli BL21(DE3)
T1 sequence (A0A0U5C3R9 1-311): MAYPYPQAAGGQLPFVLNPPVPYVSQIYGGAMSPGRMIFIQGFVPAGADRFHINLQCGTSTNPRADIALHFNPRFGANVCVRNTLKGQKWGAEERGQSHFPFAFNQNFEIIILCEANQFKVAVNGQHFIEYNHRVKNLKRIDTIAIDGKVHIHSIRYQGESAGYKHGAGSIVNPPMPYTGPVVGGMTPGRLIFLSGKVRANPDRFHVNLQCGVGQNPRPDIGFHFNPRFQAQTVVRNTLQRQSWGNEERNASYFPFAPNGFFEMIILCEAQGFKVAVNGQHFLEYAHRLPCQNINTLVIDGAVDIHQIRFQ
As to the kind of experiment: inhibition of hemagglutination of human red blood cells. The format is cell-based. The settings on record: 0.25 uM protein; PBS, room temperature, 40 min; lowest dose tested (1-20 mM).

`OC[C@H]1O[C@@H](O[C@H]2[C@H](O)[C@@H](O)C(O)O[C@@H]2CO)[C@H](O)[C@@H](O)[C@H]1O` (stereo partly shown) [lactose] gave an effective inhibitory concentration of 1 mM.

(Values after article PMC4671058, “Heterologous expression of newly identified galectin-8 from sea urchin embryos produces recombinant protein with lactose binding specificity and anti-adhesive activity” (Scientific Reports, 2015).)
